Reference: the supplement of paper PMC4862054
Values joined by “and” are separate entries in the source; they are usually repeats but may differ in a detail not shown here. Equal entries are not always repeated.

Tests used:
Conditions in all cases: incubation time: 72 h
BT-474 [1] = assay: normalised viability (% of control), CellTiter-Blue; higher = more viable cells (about 100 = DMSO control)
Protocol: (§1)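 DSRT, CellTiter-Blue viability, 72 h incubation. Signal is normalised to DMSO and benzethonium chloride controls. Value is the normalised response at dose 3.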

BT-549 [2] = assay: as above
Protocol: as §1

DU-4475 [3] = assay: as above
Protocol: as §1

HCC1937 [4] = assay: as above
Protocol: as §1

MDA-MB-231 [5] = assay: as above
Protocol: as §1

MDA-MB-453 [6] = assay: as above
Protocol: as §1

MFM-223 [7] = assay: as above
Protocol: as §1

SK-BR-3 [8] = assay: as above
Protocol: as §1

BT-474 [9] = assay: drug sensitivity score (DSS), CellTiter-Glo (DSS (AUC-based score)); higher = stronger drug effect (viability inhibition or cytotoxicity); extreme values may be limits of the assay
Procedure, shortened: (§2)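 Compound was dispensed into 384-well plates at 5 concentrations in 10-fold steps spanning a 10,000-fold range chosen for each compound, and 20 µl of breast cancer cell suspension was added before 72 h of incubation. CellTox Green fluorescence was read at 485/520 nm, followed by CellTiter-Glo luminescence after 10 min at room temperature. Values on each plate were normalised to 0.1 % DMSO and a positive kill control. The drug sensitivity score came from the area under the fitted dose-response curve.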

BT-549 [10] = assay: as above
Procedure, shortened: as §2

CAL-120 = assay: as above
Procedure, shortened: as §2

CAL-148 = assay: as above
Procedure, shortened: as §2

CAL-51 = assay: as above
Procedure, shortened: as §2

CAL-85-1 = assay: as above
Procedure, shortened: as §2

DU-4475 [11] = assay: as above
Procedure, shortened: as §2

HCC1143 = assay: as above
Procedure, shortened: as §2

HCC1599 = assay: as above
Procedure, shortened: as §2

HCC1937 [12] = assay: as above
Procedure, shortened: as §2

HDQ-P1 = assay: as above
Procedure, shortened: as §2

Hs578T = assay: as above
Procedure, shortened: as §2

MCF-10A = assay: as above
Procedure, shortened: as §2

MDA-MB-231 [13] = assay: as above
Procedure, shortened: as §2

MDA-MB-436 = assay: as above
Procedure, shortened: as §2

MDA-MB-453 [14] = assay: as above
Procedure, shortened: as §2

MDA-MB-468 = assay: as above
Procedure, shortened: as §2

MFM-223 [15] = assay: as above
Procedure, shortened: as §2

SK-BR-3 [16] = assay: as above
Procedure, shortened: as §2

Row | SMILES | drug sensitivity score (BT-474 [9]) | drug sensitivity score (BT-549 [10]) | drug sensitivity score (CAL-120) | drug sensitivity score (CAL-148) | drug sensitivity score (CAL-51) | drug sensitivity score (CAL-85-1) | drug sensitivity score (DU-4475 [11]) | drug sensitivity score (HCC1143) | drug sensitivity score (HCC1599) | drug sensitivity score (HCC1937 [12]) | drug sensitivity score (HDQ-P1) | drug sensitivity score (Hs578T) | drug sensitivity score (MCF-10A) | drug sensitivity score (MDA-MB-231 [13]) | drug sensitivity score (MDA-MB-436) | drug sensitivity score (MDA-MB-453 [14]) | drug sensitivity score (MDA-MB-468) | drug sensitivity score (MFM-223 [15]) | drug sensitivity score (SK-BR-3 [16]) | also measured
1 | O=C(CCBr)N1CCN(C(=O)CCBr)CC1 [Pipobroman] | 0 | 0 | 0 | 0 | 1.64 | 0 | 0 | 0 | 0 | 0 | 0 | 0 | 0 | 0 | 0 | 0 | 0 | 0 | 0 | normalised viability (BT-474 [1]; 100 nM): 119%; normalised viability (BT-549 [2]; 100 nM): 86.4%; normalised viability (DU-4475 [3]; 10 nM): 103%; normalised viability (HCC1937 [4]; 100 nM): 87.9%; normalised viability (MDA-MB-231 [5]; 100 nM): 94.7%; normalised viability (MDA-MB-453 [6]; 10 nM): 102%; normalised viability (MFM-223 [7]; 100 nM): 98.8%; normalised viability (SK-BR-3 [8]; 100 nM): 108%
2 | CNC(=O)c1cc(Oc2ccc(NC(=O)Nc3ccc(Cl)c(C(F)(F)F)c3)cc2)ccn1 [Sorafenib] | 0 | 0 | 0 | 0 | 0 | 0 | 0 | 0 | 0 | 0 | 0 | 0 | 0 | 0 | 0 | 0 | 0 | 0 | 0 | normalised viability (BT-474 [1]; 10 nM): 114% and 99.3%; normalised viability (DU-4475 [3]; 1 nM): 118% and 131%; normalised viability (HCC1937 [4]; 10 nM): 83.9% and 84.5%; normalised viability (MDA-MB-453 [6]; 1 nM): 103% and 109%; normalised viability (MFM-223 [7]; 10 nM): 94.7% and 95%
3 | Cn1cc(CNCC2CCN(c3ncc(C(=O)NO)cn3)CC2)c2ccccc21 |  |  |  |  |  |  |  |  |  |  |  |  |  |  |  |  |  |  |  | normalised viability (BT-474 [1]; 10 nM): 78.2%; normalised viability (BT-549 [2]; 10 nM): 103%; normalised viability (DU-4475 [3]; 1 nM): 89%; normalised viability (HCC1937 [4]; 10 nM): 76.4%; normalised viability (MDA-MB-231 [5]; 10 nM): 99.5%; normalised viability (MDA-MB-453 [6]; 1 nM): 86.3%; normalised viability (MFM-223 [7]; 10 nM): 74.7%; normalised viability (SK-BR-3 [8]; 10 nM): 35.8%
4 | CS(=O)(=O)N1CCN(Cc2cc3nc(-c4cccc5[nH]ncc45)nc(N4CCOCC4)c3s2)CC1 [GDC-0941] |  |  |  |  |  |  |  |  |  |  |  |  |  |  |  |  |  |  |  | normalised viability (BT-474 [1]; 100 nM): 102%; normalised viability (BT-549 [2]; 100 nM): 92.8%; normalised viability (DU-4475 [3]; 10 nM): 108%; normalised viability (HCC1937 [4]; 100 nM): 99.1%; normalised viability (MDA-MB-231 [5]; 100 nM): 83.2%; normalised viability (MFM-223 [7]; 100 nM): 82%; normalised viability (SK-BR-3 [8]; 100 nM): 58.7%
5 | CS(=O)(=O)N1CCN(Cc2cc3nc(-c4cccc5[nH]ncc45)nc(N4CCOCC4)c3s2)CC1 [Pictilisib] | 6.27 | 9.15 | 7.47 | 8.61 | 10.1 | 8.59 | 1.25 | 7.14 | 0 | 5.69 | 11.9 | 7.69 | 13.3 | 6.01 | 5.3 | 13.1 | 6.39 | 7.5 | 14.2 | 
6 | Cc1cccc(-c2nn3c(c2-c2ccnc4ccc(C(N)=O)cc24)CCC3)n1 |  |  |  |  |  |  |  |  |  |  |  |  |  |  |  |  |  |  |  | normalised viability (BT-474 [1]; 10 nM): 107%; normalised viability (BT-549 [2]; 10 nM): 96.4%; normalised viability (DU-4475 [3]; 1 nM): 90.5%; normalised viability (HCC1937 [4]; 10 nM): 122%; normalised viability (MDA-MB-231 [5]; 10 nM): 99%; normalised viability (MDA-MB-453 [6]; 1 nM): 112%; normalised viability (MFM-223 [7]; 10 nM): 96.8%; normalised viability (SK-BR-3 [8]; 10 nM): 98.9%
7 | COc1nc(N)nc2c1ncn2[C@@H]1O[C@H](CO)[C@@H](O)[C@@H]1O [Nelarabine] | 1.66 | 0 | 0 | 0 | 0 | 0 | 0 | 0 | 0 | 0 | 0 | 0 | 0 | 0 | 0.149 | 0 | 0 | 0 | 0 | normalised viability (BT-474 [1]; 100 nM): 87.4% and 96.1%; normalised viability (BT-549 [2]; 100 nM): 88.7% and 74.2%; normalised viability (HCC1937 [4]; 100 nM): 93.1% and 85.6%; normalised viability (MDA-MB-231 [5]; 100 nM): 92.8% and 89.7%; normalised viability (MDA-MB-453 [6]; 10 nM): 97.4% and 102%; normalised viability (MFM-223 [7]; 100 nM): 103% and 101%
8 | CCCCC/C=C/C=C1/C(=O)C=C[C@@H]1C/C=C\CCCC(=O)O [15D-PGJ2] | 0 | 0 | 0 | 0 | 0 | 0 | 0 | 0 | 0 | 0 | 0 | 0 | 0 | 0 | 0 | 0 | 0 | 0 | 0 | 
9 | CC/C(=C(\c1ccc(O)cc1)c1ccc(OCCN(C)C)cc1)c1ccccc1 [4-hydroxytamoxifen] | 0 | 2.89 | 1.84 | 0 | 0 | 3.01 | 0 | 0 | 0 | 3.45 | 0 | 0 | 0 | 2.63 | 1.6 | 1.86 | 4.87 | 1.9 | 1.4 | 
10 | O=C(NC[C@H](O)CO)c1ccncc1Nc1ccc(I)cc1F [Pimasertib] | 7.07 | 0.686 | 5.16 | 3.19 | 5.03 | 8.66 | 32.3 | 0 | 0 | 2.69 | 13 | 2.79 | 21.9 | 6.34 | 0.481 | 0 | 0 | 1.68 | 2.74 | 
11 | CC(C)N(CCCNC(=O)Nc1ccc(C(C)(C)C)cc1)C[C@H]1O[C@@H](n2cc(Br)c3c(N)ncnc32)[C@H](O)[C@@H]1O [SGC0946] | 0 | 0 | 0 | 0 | 0 | 0 | 0 | 0 | 0 | 0 | 0 | 0 | 0 | 0 | 0 | 0 | 2.46 | 0 | 0 | 
12 | CC(=O)OC[C@H]1O[C@@H]([S-])[C@H](OC(C)=O)[C@@H](OC(C)=O)[C@@H]1OC(C)=O.CCP(CC)CC.[Au+] [Auranofin] | 1.22 | 9.2 | 0.998 | 1.24 | 11.7 | 6.05 | 1.74 | 5.15 | 1.36 | 7.45 | 3.9 | 3.87 | 1.42 | 4.38 | 5.88 | 6.93 | 14.9 | 2.71 | 1.76 | 
13 | Nc1nc(=O)c2c([nH]1)NCC(CNc1ccc(C(=O)N[C@@H](CCC(=O)O)C(=O)O)cc1)N2C=O (mixture of isomers) [Folinic acid] |  |  |  |  |  |  |  |  |  |  |  |  |  |  |  |  |  |  |  | normalised viability (BT-474 [1]; 9.9 nM): 121%; normalised viability (BT-549 [2]; 9.9 nM): 101%; normalised viability (DU-4475 [3]; 0.99 nM): 105%; normalised viability (HCC1937 [4]; 9.9 nM): 110%; normalised viability (MDA-MB-231 [5]; 9.9 nM): 103%; normalised viability (MDA-MB-453 [6]; 0.99 nM): 104%; normalised viability (MFM-223 [7]; 9.9 nM): 95.5%; normalised viability (SK-BR-3 [8]; 9.9 nM): 104%
14 | O=C(NC[C@H](O)CO)c1ccncc1Nc1ccc(I)cc1F |  |  |  |  |  |  |  |  |  |  |  |  |  |  |  |  |  |  |  | normalised viability (BT-474 [1]; 100 nM): 110%; normalised viability (BT-549 [2]; 100 nM): 101%; normalised viability (DU-4475 [3]; 10 nM): 63.7%; normalised viability (HCC1937 [4]; 100 nM): 88.7%; normalised viability (MDA-MB-231 [5]; 100 nM): 44.8%; normalised viability (MDA-MB-453 [6]; 10 nM): 88.7%; normalised viability (MFM-223 [7]; 100 nM): 85.4%; normalised viability (SK-BR-3 [8]; 100 nM): 78.1%
15 | Cn1cc(CNCC2CCN(c3ncc(C(=O)NO)cn3)CC2)c2ccccc21 [Quisinostat] | 13.7 | 11.9 | 12.3 | 18.3 | 12.1 | 16.4 | 16.2 | 16.7 | 12.5 | 8.41 | 10.3 | 13.7 | 11.5 | 13.2 | 9.76 | 23.3 | 13.6 | 9.28 | 19.3 | 
16 | Cc1cccc(-c2nn3c(c2-c2ccnc4ccc(C(N)=O)cc24)CCC3)n1 [Galunisertib] | 0 | 0 | 0 | 0 | 0.026 | 0 | 0 | 0 | 0 | 0 | 0 | 0 | 0 | 0 | 0 | 0 | 0 | 0 | 0 | 
17 | Cc1nc(Nc2ncc(C(=O)Nc3c(C)cccc3Cl)s2)cc(N2CCN(CCO)CC2)n1 [Dasatinib] | 11.4 | 7.26 | 8.55 | 0 | 11.8 | 8.17 | 0 | 6.57 | 0 | 6.2 | 14.9 | 8.38 | 15.9 | 14.2 | 0.821 | 0 | 4.01 | 0 | 0 | normalised viability (BT-474 [1]; 10 nM): 117% and 108%; normalised viability (BT-549 [2]; 10 nM): 91.5% and 93.8%; normalised viability (DU-4475 [3]; 1 nM): 105% and 111%; normalised viability (HCC1937 [4]; 10 nM): 87.7% and 94.3%; normalised viability (MDA-MB-453 [6]; 1 nM): 100%; normalised viability (MFM-223 [7]; 10 nM): 91.8% and 88%; normalised viability (SK-BR-3 [8]; 10 nM): 89.4% and 82.9%
18 | Cc1c(Cn2c(C)nc3c(C(=O)O)cc(N4CCOCC4)cc32)cccc1C(F)(F)F | 0 | 3.9 | 0 | 0 | 12.3 | 0 | 0 | 0 | 0 | 0 | 0 | 0 | 0 | 0 | 0.153 | 0 | 3.65 | 0 | 0 | 
